Results as given in US11684067B2, “Generation of peroxyformic acid through polyhydric alcohol formate” (priority 2014, dated 2023).
Values joined by “and” are separate entries in the source; they are usually repeats but may differ in a detail not shown here. Equal values may be shown once.

Experiments:
[1] = system: Bacillus subitilisATCC 19659; assay: Sporicidal activity of ester PFA versus POAA (Example 21); assay type: cell-based, Bacillus subtilis; settings: 20°C, dirty
From the text: Bacillus pathogens were used to evaluate the micro efficacy of ester PFA generated according to methods of the present invention in comparison to POAA.

[2] = system: Staphylococcus aureus ATCC 6538; assay: Bactericidal activity of ester PFA versus POAA, EN 1276, dirty conditions; assay type: cell-based; settings: 20°C
From the text: (§1) Additional Staphylococcus, Enterococcus and Pseudomonas pathogens were used to evaluate the micro efficacy of ester PFA generated according to methods of the present invention in comparison to POAA.

[3] = system: Pseudomonas aeruginosa ATCC 15442; assay: as above; assay type: cell-based; settings: 20°C
From the text: as §1

[4] = system: Enterococcus hirae ATCC 10541; assay: as above; assay type: cell-based; settings: 20°C
From the text: as §1

[5] = Laundry disinfection efficacy, EPA protocol on 100% cotton carriers (Table 38); assay type: cell-based; settings: 42 ppm, pH 7.7, 500 ppm hard water, 40° C., 5 minute exposure, vs water control
Procedure: The microbial efficacy of peroxyformic acid was also tested following the EPA protocol on 100% cotton carriers against a water control. The test conditions were pH 7.7, 500 ppm hard water, 40° C. and 5 minute exposure time. In comparison, the performance of peracetic acid was also tested under the same conditions.

[6] = system: Nalidixic acid resistant E. coli O157:H7; assay: Reduction of E. coli on raw beef brisket, dip treatment; assay type: cell-based; settings: 10 minutes dip, ambient, 220 ppm POAA / 180 ppm PFA / 50 ppm LAS per formula (Table 15)
Procedure: Nalidixic acid resistant E. coli O157:H7 was used to evaluate the efficacy in treatment with performic acid composition on raw beef brisket according to the conditions shown in Table 14.
The generation of PFA from the perhydrolysis of glycerol formates, PFA formulations, POAA formations and controls were evaluated as shown in Table 15.

pseudomonas = assay: Suspension test in cooling tower water samples; assay type: cell-based; settings: 10 minutes
Procedure: The antimicrobial efficacy of peroxyformic acid generated through the perhydrolysis of glycerol formatted were tested against pseudomonas in cooling tower samples at both 25° C. and 37° C., along with the peroxyacetic acid (POAA) controls, and the results are summarized in Table 6 and 7 below.

[7] = system: Bacillus subitilisATCC 19659; assay: Sporicidal activity of ester PFA versus POAA (Example 23); assay type: cell-based, Bacillus subtilis; settings: 20°C, dirty
From the text: Additional Bacillus pathogens were used to evaluate the micro efficacy of ester PFA generated according to methods of the present invention in comparison to POAA.

[8] = system: Candida albicans ATCC 10231; assay: Fungicidal/yeasticidal activity of ester PFA versus POAA (Example 22); assay type: cell-based; settings: 20°C, dirty
From the text: (§2) Canidia and Aspergillus pathogens were used to evaluate the micro efficacy of ester PFA generated according to methods of the present invention in comparison to POAA.

[9] = system: Aspergillus brasiliensis ATCC 16404; assay: as above; assay type: cell-based; settings: 20°C, dirty
From the text: as §2

[10] = Physical properties (hygroscopicity, water solubility) of formate esters prepared; assay type: physicochemical; settings: hexaformates: at room temperature
[11] = 300 ppm PFA pH 6.84 / 368 ppm POAA pH 6.73 (molar equivalent), 5 minutes
[12] = 300 ppm PFA pH 6.84 / 368 ppm POAA pH 6.73 (molar equivalent), 10 minutes
[13] = 400 ppm PFA pH 7.19 / 490 ppm POAA pH 6.78 (molar equivalent), 5 minutes
[14] = 400 ppm PFA pH 7.19 / 490 ppm POAA pH 6.78 (molar equivalent), 10 minutes
[15] = 20 ppm PFA pH 6.61 / 24.8 ppm POAA pH 6.73, 5 minutes
[16] = 30 ppm PFA pH 6.74 / 37.6 ppm POAA pH 6.90, 5 minutes
[17] = 50 ppm PFA pH 6.60 / 62.4 ppm POAA pH 6.98, 5 minutes
[18] = BP Cooling Water pH 8.74, 5 ppm Ester PFA / 6.13 ppm POAA, 25°C
[19] = BP Cooling Water pH 8.74, 5 ppm Ester PFA / 6.13 ppm POAA, 37°C
[20] = BP Cooling Water pH 8.74, 12.3 ppm POAA, 25°C
[21] = BP Cooling Water pH 8.74, 12.3 ppm POAA, 37°C
[22] = Peninsula Cooling Water pH 8.81, 5 ppm Ester PFA / 6.13 ppm POAA, 25°C
[23] = Peninsula Cooling Water pH 8.81, 5 ppm Ester PFA / 6.13 ppm POAA, 37°C
[24] = Peninsula Cooling Water pH 8.81, 12.3 ppm POAA, 25°C
[25] = Peninsula Cooling Water pH 8.81, 12.3 ppm POAA, 37°C
[26] = 300 ppm PFA pH 6.73 / 368 ppm POAA pH 6.88, 5 minutes
[27] = 300 ppm PFA pH 6.73 / 368 ppm POAA pH 6.88, 10 minutes
[28] = 400 ppm PFA pH 6.95 / 490 ppm POAA pH 6.65, 5 minutes
[29] = 400 ppm PFA pH 6.95 / 490 ppm POAA pH 6.65, 10 minutes
[30] = 200 ppm PFA pH 6.15 / 245 ppm POAA pH 6.56, 5 minutes
[31] = 200 ppm PFA pH 6.15 / 245 ppm POAA pH 6.56, 10 minutes
[32] = 200 ppm PFA pH 6.15 / 245 ppm POAA pH 6.56, 15 minutes
[33] = 300 ppm PFA pH 6.21 / 368 ppm POAA pH 6.63, 5 minutes
[34] = 300 ppm PFA pH 6.21 / 368 ppm POAA pH 6.63, 10 minutes

CC(=O)OO [POAA, peroxyacetic acid, reference compound]
Average CFU/mL [1, 11]: 7.50E+05 CFU/mL
Log10 Growth [1, 11]: 5.88 Log10
Log10 Reduction [1, 11]: 0.00 Log10
Average CFU/mL [1, 12]: 5.00E+05 CFU/mL
Log10 Growth [1, 12]: 5.70 Log10
Log10 Reduction [1, 12]: 0.00 Log10
Average CFU/mL [1, 13]: 8.50E+05 CFU/mL
Log10 Growth [1, 13]: 5.93 Log10
Log10 Reduction [1, 13]: 0.00 Log10
Average CFU/mL [1, 14]: 4.00E+05 CFU/mL
Log10 Growth [1, 14]: 5.60 Log10
Log10 Reduction [1, 14]: 0.19 Log10
Average CFU/mL [2, 15]: 1.77E + 05 CFU/mL
Log10 Growth [2, 15]: 5.25 Log10
Average CFU/mL [2, 16]: <140 CFU/mL
Log10 Growth [2, 16]: <2.15 Log10
Average CFU/mL [2, 17]: <140 CFU/mL
Log10 Growth [2, 17]: <2.15 Log10
Average CFU/mL [3, 15]: <140 CFU/mL
Log10 Growth [3, 15]: <2.15 Log10
Average CFU/mL [3, 16]: <140 CFU/mL
Log10 Growth [3, 16]: <2.15 Log10
Average CFU/mL [3, 17]: <140 CFU/mL
Log10 Growth [3, 17]: <2.15 Log10
Average CFU/mL [4, 15]: >3.30E + 05 CFU/mL
Log10 Growth [4, 15]: >5.52 Log10
Average CFU/mL [4, 16]: 9.25E + 03 CFU/mL
Log10 Growth [4, 16]: 3.97 Log10
Average CFU/mL [4, 17]: <140 CFU/mL
Log10 Growth [4, 17]: <2.15 Log10
Log reduction ([5]; Klebsiella pneumoniae ATCC 4352): 2.46
Log reduction ([5]; Staphylococcus aureus ATCC 6538): >5.85
Average Log CFU/cm2 [6]: 2.98 Log CFU/cm2
Log reduction [6]: 1.06 Log
CFU/cm2 ([6]; single samples): 1.20E+03 CFU/cm2 and 9.00E+02 CFU/cm2 and 8.00E+02 CFU/cm2
CFU/ml ([6]; single samples): 6.00E+02 CFU/ml and 4.50E+02 CFU/ml and 4.00E+02 CFU/ml
Log CFU/cm2 ([6]; single samples): 3.08 Log CFU/cm2 and 2.95 Log CFU/cm2 and 2.90 Log CFU/cm2
Avg. Log10 Growth (pseudomonas; [18]): 4.10 Log10
Log10 Reduction (pseudomonas; [18]): 1.57 Log10
Avg. Log10 Growth (pseudomonas; [19]): 2.84 Log10
Log10 Reduction (pseudomonas; [19]): 2.26 Log10
Avg. Log10 Growth (pseudomonas; [20]): 3.26 Log10
Log10 Reduction (pseudomonas; [20]): 2.41 Log10
Avg. Log10 Growth (pseudomonas; [21]): 2.73 Log10
Log10 Reduction (pseudomonas; [21]): 2.37 Log10
Avg. Log10 Growth (pseudomonas; [22]): 3.81 Log10
Log10 Reduction (pseudomonas; [22]): 1.37 Log10
Avg. Log10 Growth (pseudomonas; [23]): 2.76 Log10
Log10 Reduction (pseudomonas; [23]): 2.34 Log10
Avg. Log10 Growth (pseudomonas; [24]): 3.30 Log10
Log10 Reduction (pseudomonas; [24]): 1.88 Log10
Avg. Log10 Growth (pseudomonas; [25]): 3.20 Log10
Log10 Reduction (pseudomonas; [25]): 1.90 Log10
Average CFU/mL [7, 26]: >3.0E+06 CFU/mL
Log10 Growth [7, 26]: >6.48 Log10
Log10 Reduction [7, 26]: <1.26 Log10
Average CFU/mL [7, 27]: >3.0E+05 CFU/mL
Log10 Growth [7, 27]: >5.48 Log10
Log10 Reduction [7, 27]: <2.26 Log10
Average CFU/mL [7, 28]: >3.0E+06 CFU/mL
Log10 Growth [7, 28]: >6.48 Log10
Log10 Reduction [7, 28]: <1.26 Log10
Average CFU/mL [7, 29]: >3.0E+05 CFU/mL
Log10 Growth [7, 29]: >5.48 Log10
Log10 Reduction [7, 29]: <2.26 Log10
Average CFU/mL [8, 30]: <140 CFU/mL
Log10 Growth [8, 30]: <2.15 Log10
Log10 Reduction [8, 30]: >4.14 Log10
Average CFU/mL [8, 31]: <140 CFU/mL
Log10 Growth [8, 31]: <2.15 Log10
Log10 Reduction [8, 31]: >4.14 Log10
Average CFU/mL [8, 32]: <140 CFU/mL
Log10 Growth [8, 32]: <2.15 Log10
Log10 Reduction [8, 32]: >4.14 Log10
Average CFU/mL [8, 33]: <140 CFU/mL
Log10 Growth [8, 33]: <2.15 Log10
Log10 Reduction [8, 33]: >4.14 Log10
Average CFU/mL [8, 34]: <140 CFU/mL
Log10 Growth [8, 34]: <2.15 Log10
Log10 Reduction [8, 34]: >4.14 Log10
Average CFU/mL [9, 30]: >1.65E+05 CFU/mL
Log10 Growth [9, 30]: >5.22 Log10
Log10 Reduction [9, 30]: <0.53 Log10
Average CFU/mL [9, 31]: >1.65E+05 CFU/mL
Log10 Growth [9, 31]: >5.22 Log10
Log10 Reduction [9, 31]: <0.53 Log10
Average CFU/mL [9, 32]: >1.65E+05 CFU/mL
Log10 Growth [9, 32]: >5.22 Log10
Log10 Reduction [9, 32]: <0.53 Log10
Average CFU/mL [9, 33]: >1.65E+05 CFU/mL
Log10 Growth [9, 33]: >5.22 Log10
Log10 Reduction [9, 33]: <0.53 Log10
Average CFU/mL [9, 34]: >1.65E+05 CFU/mL
Log10 Growth [9, 34]: >5.22 Log10
Log10 Reduction [9, 34]: <0.53 Log10

O=COC[C@@H](OC=O)[C@@H](OC=O)[C@H](OC=O)[C@@H](COC=O)OC=O [Mannitol Hexaformates]
solubility in water of the isolated solid [10]: marginally soluble in water
